Patent US8993547B2, “3-desoxy-2-methylene-19-nor-vitamin D analogs and their uses” (Wisconsin Alumni Research Foundation, priority 2011, dated 2015)
“Also recorded” adds a separate entry of the source.

Key:
[1] = tested on: intestinal calcium transport; experiment: Intestinal calcium transport, everted gut sac method; assay type: in vivo, Sprague-Dawley rats; details: vitamin D-deficient rats
Protocol: (§1) Male, weanling Sprague-Dawley rats were placed on Diet 11 (Suda et al, J. Nutr. 100:1049, 1970) (0.47% Ca)+vitamins AEK for one week followed by Diet 11 (0.02% Ca)+vitamins AEK for 3 weeks. The rats were then switched to the same diet containing 0.47% Ca for one week followed by two weeks on the same diet containing 0.02% Ca. Dose administration began during the last week on 0.02% calcium diet. Four consecutive ip doses were given approximately 24 hours apart. Twenty-four hours after the last dose, blood was collected from the severed neck and the concentration of serum calcium determined by atomic absorption spectrometry as a measure of bone calcium mobilization. The first 10 cm of the intestine was also collected for intestinal calcium transport analysis using the everted gut sac method.

[2] = tested on: bone calcium mobilization; experiment: Bone calcium mobilization (serum calcium) in vitamin D-deficient rats; assay type: in vivo, Sprague-Dawley rats; details: for bone calcium mobilization activity / serum calcium: vitamin D-deficient rats on low calcium diet (0.02%)
Protocol: as §1

[3] = tested on: 24-hydroxylase (24Ohase) gene promoter in ROS 17/2.8 (bone) cells; experiment: In vitro transcription assay, 24-hydroxylase gene promoter luciferase reporter; assay type: cell-based; details: for transcriptional activity in bone cells compared to 1α,25-dihydroxyvitamin D3: 24-hydroxylase gene; for EC50: ROS 17/2.8 cells, 16 hours after dosing, read-out: EC50, transcriptional activity in bone cells (24-hydroxylase gene)
Protocol: Transcription activity was measured in ROS 17/2.8 (bone) cells that were stably transfected with a 24-hydroxylase (24Ohase) gene promoter upstream of a luciferase reporter gene (Arbour et al., 1998). Cells were given a range of doses. Sixteen hours after dosing the cells were harvested and luciferase activities were measured using a luminometer. RLU=relative luciferase units.

[4] = tested on: Human promyelocytic leukemia (HL60) cells; experiment: HL-60 cell differentiation (nitro blue tetrazolium reduction); assay type: cell-based; details: for EC50: HL60 cells, 4 days
Protocol: The study drugs were dissolved in ethanol and the concentrations determined using UV spectrophotometry. Serial dilutions were prepared so that a range of drug concentrations could be tested without changing the final concentration of ethanol (≦0.2%) present in the cell cultures.
Human promyelocytic leukemia (HL60) cells were grown in RPMI-1640 medium containing 10% fetal bovine serum. The cells were incubated at 37° C. in the presence of 5% CO2.
HL60 cells were plated at 1.2×10^5 cells/ml. Eighteen hours after plating, cells in duplicate were treated with drug. Four days later, the cells were harvested and a nitro blue tetrazolium reduction assay was performed (Collins et al., 1979; J. Exp. Med. 149:969-974). The percentage of differentiated cells was determined by counting a total of 200 cells and recording the number that contained intracellular black-blue formazan deposits. Verification of differentiation to monocytic cells was determined by measuring phagocytic activity (data not shown).

[5] = molecular target: T1, full-length recombinant rat vitamin D receptor (Rattus norvegicus, UniProt P13053); experiment: Vitamin D receptor competitive binding with [3H]-1,25(OH)2D3; details: full-length recombinant rat VDR
T1 construct: Full-length recombinant rat receptor was expressed in E. coli; histidine tag (C); made in house; host or cells: E. coli BL21 (DE3) Codon Plus RIL
T1 sequence (P13053 1-423): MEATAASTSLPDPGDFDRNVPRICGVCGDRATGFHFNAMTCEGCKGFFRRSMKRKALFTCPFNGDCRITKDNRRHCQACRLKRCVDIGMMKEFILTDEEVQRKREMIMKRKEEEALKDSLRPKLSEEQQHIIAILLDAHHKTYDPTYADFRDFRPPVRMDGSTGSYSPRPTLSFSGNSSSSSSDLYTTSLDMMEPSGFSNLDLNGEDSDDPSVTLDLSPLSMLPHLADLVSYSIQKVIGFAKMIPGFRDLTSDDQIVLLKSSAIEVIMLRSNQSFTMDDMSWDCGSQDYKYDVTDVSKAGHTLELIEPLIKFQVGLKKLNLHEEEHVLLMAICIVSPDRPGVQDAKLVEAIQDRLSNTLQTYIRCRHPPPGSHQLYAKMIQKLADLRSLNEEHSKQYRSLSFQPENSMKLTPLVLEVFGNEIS
Protocol: Full-length recombinant rat receptor was expressed in E. coli BL21 (DE3) Codon Plus RIL cells and purified to homogeneity using two different column chromatography systems. The first system was a nickel affinity resin that utilizes the C-terminal histidine tag on this protein. The protein that was eluted from this resin was further purified using ion exchange chromatography (S-Sepharose Fast Flow). Aliquots of the purified protein were quick frozen in liquid nitrogen and stored at −80° C. until use. For use in binding assays, the protein was diluted in TEDK50 (50 mM Tris, 1.5 mM EDTA, pH7.4, 5 mM DTT, 150 mM KCl) with 0.1% Chaps detergent. The receptor protein and ligand concentration was optimized such that no more than 20% of the added radiolabeled ligand was bound to the receptor.
Radiolabeled and unlabeled ligands were added to 100 mcl of the diluted protein at a final ethanol concentration of ≦10%, mixed and incubated overnight on ice to reach binding equilibrium. The following day, 100 mcl of hydroxylapatite slurry (50%) was added to each tube and mixed at 10-minute intervals for 30 minutes. The hydroxylapaptite was collected by centrifugation and then washed three times with Tris-EDTA buffer (50 mM Tris, 1.5 mM EDTA, pH 7.4) containing 0.5% Titron X-100. After the final wash, the pellets were transferred to scintillation vials containing 4 ml of Biosafe II scintillation cocktail, mixed and placed in a scintillation counter. Total binding was determined from the tubes containing only radiolabeled ligand.

SMILES | intestinal calcium transport activity compared to 1,25(OH)2D3 [1] | potency in mobilization of bone calcium relative to native hormone at the same dose ([2]; 780 pmol/day for 4 consecutive days, rats on low calcium diet (0.02%)) | potency in releasing bone calcium stores relative to native hormone ([2]; vitamin D-deficient rats, times more potent than 1,25(OH)2D3) | transcriptional activity in bone cells compared to 1α,25-dihydroxyvitamin D3 [3] | EC50 [3] | EC50 ([4]; Homo sapiens, HL-60, 96 h) | binding affinity to vitamin D receptor compared to 1,25-(OH)2D3 [5] | mobilization of bone calcium compared to native hormone at the same dose ([2]; 87 pmol/day for 4 consecutive days) | bone calcium mobilization activity / serum calcium [2] | potency on HL-60 cell differentiation compared to 1,25(OH)2D3 [4] | Ki ([5]; read-out: Ki, competition with [3H]-1,25(OH)2D3 for binding to vitamin D receptor) | EC50 [4]
C=C1CC/C(=C/C=C2\CCC[C@]3(C)[C@@H]([C@@H](C)CCCC(C)(C)O)CC[C@@H]23)C[C@H]1O [3-desoxy-2MD, (20S)-3-desoxy-2-methylene-1α,25-dihydroxy-19-nor-vitamin D3] | about one half log less potent; also recorded: at least one half log less potent than 1,25(OH)2D3 | about 10 times | at least 10 times | about the same transcriptional activity | 0.3 nM | 0.7 nM | about the same affinity |  |  |  |  | 
C=C1CC/C(=C/C=C2\CCC[C@]3(C)[C@@H]([C@H](C)CCCC(C)(C)O)CC[C@@H]23)C[C@H]1O [3D-MJ, (20R)-3-desoxy-2-methylene-1α,25-dihydroxy-19-nor-vitamin D3] | about the same potency as 1,25(OH)2D3; also recorded: about as potent |  |  | about the same transcriptional activity | 0.3 nM | 1 nM | about the same affinity | only slightly less mobilization of bone calcium than the native hormone | about the same potency as the native hormone | about the same potency as 1,25(OH)2D3 | 0.7 nM | 
C=C1/C(=C\C=C2/CCC[C@]3(C)[C@@H]([C@H](C)CCCC(C)(C)O)CC[C@@H]23)C[C@@H](O)C[C@@H]1O [1α,25-dihydroxyvitamin D3, reference compound] |  |  |  |  |  |  |  |  | increased serum calcium levels at the dosages tested |  |  | 2 nM
